# Assay results published in patent publication US5420027A, “Methods and compositions for the expression of biologically active fusion proteins comprising a eukaryotic cytochrome P450 fused to a reductase in bacteria” (Board of Regents, The University of Texas System, priority 1992, dated 1995).
# Where two headings read alike, the source gives them in different places.
# T1: bovine P45017α (Bos taurus, UniProt P05185, W2A)
# T1 construct: made in house; host or cells: E. coli JM109 harboring pCWmod17 (intact cells)
# T1 sequence (P05185 1-509 W2A): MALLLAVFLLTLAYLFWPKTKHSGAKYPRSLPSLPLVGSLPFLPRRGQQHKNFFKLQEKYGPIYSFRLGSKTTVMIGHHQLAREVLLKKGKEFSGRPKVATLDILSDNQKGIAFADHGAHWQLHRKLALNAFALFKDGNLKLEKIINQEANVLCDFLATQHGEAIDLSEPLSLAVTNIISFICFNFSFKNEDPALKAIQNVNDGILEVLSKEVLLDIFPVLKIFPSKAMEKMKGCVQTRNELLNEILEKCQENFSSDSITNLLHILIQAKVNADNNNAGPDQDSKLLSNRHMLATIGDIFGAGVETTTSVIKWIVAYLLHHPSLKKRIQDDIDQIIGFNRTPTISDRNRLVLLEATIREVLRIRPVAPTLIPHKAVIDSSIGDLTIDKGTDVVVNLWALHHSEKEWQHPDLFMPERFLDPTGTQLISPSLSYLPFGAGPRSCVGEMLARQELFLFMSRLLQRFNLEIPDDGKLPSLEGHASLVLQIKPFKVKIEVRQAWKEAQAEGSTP
# T2: bovine P450 17A1- rat liver reductase fusion protein (UniProt P00388+P05185, W2A)
# T2 sequence (P05185+P00388 with tags, fused parts or gaps P05185:W2A): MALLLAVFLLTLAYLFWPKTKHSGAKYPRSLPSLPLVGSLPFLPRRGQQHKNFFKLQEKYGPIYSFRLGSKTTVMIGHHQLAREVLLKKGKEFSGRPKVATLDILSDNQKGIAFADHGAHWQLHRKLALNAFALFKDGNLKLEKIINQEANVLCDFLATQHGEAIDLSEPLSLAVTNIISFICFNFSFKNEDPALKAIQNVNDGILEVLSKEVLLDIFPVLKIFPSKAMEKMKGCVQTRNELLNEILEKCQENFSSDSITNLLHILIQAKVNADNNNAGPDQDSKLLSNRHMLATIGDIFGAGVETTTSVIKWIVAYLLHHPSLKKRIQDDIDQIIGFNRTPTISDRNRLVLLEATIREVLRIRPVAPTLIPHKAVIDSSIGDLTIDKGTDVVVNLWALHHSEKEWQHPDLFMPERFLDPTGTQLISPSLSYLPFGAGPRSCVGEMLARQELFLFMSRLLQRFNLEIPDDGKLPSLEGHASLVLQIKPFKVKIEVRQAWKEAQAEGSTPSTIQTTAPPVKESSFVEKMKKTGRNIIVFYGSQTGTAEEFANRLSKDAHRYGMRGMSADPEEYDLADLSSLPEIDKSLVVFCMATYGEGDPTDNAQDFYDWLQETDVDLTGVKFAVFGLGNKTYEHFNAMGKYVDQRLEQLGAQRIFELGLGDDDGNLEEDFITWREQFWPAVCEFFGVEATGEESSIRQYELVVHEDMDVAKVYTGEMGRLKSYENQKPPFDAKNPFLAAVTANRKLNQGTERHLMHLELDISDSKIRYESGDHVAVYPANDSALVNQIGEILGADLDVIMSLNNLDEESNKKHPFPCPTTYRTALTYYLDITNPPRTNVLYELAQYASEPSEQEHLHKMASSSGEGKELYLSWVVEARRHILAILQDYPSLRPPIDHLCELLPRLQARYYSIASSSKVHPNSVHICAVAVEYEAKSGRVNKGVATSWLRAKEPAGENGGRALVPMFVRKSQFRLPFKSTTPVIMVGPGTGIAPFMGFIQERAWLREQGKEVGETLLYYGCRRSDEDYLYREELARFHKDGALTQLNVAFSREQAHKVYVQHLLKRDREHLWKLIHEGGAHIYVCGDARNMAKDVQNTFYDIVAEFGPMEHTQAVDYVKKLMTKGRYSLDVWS
# T3: human liver P450 1A2 (Homo sapiens, UniProt P05177, A19F/I20L/S18V)
# T3 construct: made in house; host or cells: E. coli DH5α membranes, pCWori+ plasmid
# T3 sequence (P05177 with tags, fused parts or gaps S18V/A19F/I20L limits assumed): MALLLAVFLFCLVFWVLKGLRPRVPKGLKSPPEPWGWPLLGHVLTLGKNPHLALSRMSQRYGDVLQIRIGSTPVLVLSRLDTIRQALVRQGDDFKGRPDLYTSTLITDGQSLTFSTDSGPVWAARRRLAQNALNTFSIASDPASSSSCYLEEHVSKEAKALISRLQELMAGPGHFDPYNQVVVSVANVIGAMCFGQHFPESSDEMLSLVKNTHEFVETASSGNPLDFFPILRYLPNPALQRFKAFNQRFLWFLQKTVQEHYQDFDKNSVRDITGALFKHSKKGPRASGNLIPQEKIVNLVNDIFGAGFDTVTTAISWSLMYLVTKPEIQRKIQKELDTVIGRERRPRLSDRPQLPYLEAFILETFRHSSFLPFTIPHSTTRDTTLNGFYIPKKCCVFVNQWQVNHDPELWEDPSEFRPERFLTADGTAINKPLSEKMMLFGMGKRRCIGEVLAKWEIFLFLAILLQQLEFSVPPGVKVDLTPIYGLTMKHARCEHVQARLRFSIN
# T4: bovine 17α-hydroxylase (P45017α) (Bos taurus, UniProt P05185, W2A)
# T4 sequence (P05185 1-509 W2A): T1 sequence (P05185 1-509 W2A)
# B1: human liver P450 1A2 (Homo sapiens; A19F/I20L/S18V) (protein)
# chain: T3 sequence (P05177 with tags, fused parts or gaps S18V/A19F/I20L limits assumed)
# notes: made in house; host or cells: E. coli DH5α membranes, pCWori+ plasmid
# Tests used:
# bovine P45017α = biological target: T1, bovine P45017α; assay: Substrate-induced difference spectra (substrate binding) in intact E. coli expressing P45017α; details: steroid added until spectrally saturated
# Experimental: The functional role of the binding of C21 steroids to the expressed P45017α was determined by incubation of transformed E. coli with radiolabeled substrates and HPLC analysis of substrates and products.
# For the studies shown in FIG. 3B, substrate binding spectra were obtained by adding steroid to the indicated final concentration: (preg) pregnenolone 22 μM, (17OH preg) 17α-hydroxypregnenolone 40 μM, (DHEA) dehydroepiandrosterone 46 μM, (AD) androstenedione 46 μM. A volume of washed cells containing 1.6 nmoles P45017α was diluted to 6 ml with MOPS buffer and divided into the sample and reference cuvettes of an Aminco DW-2A spectrophotometer. A baseline tracing was recorded from 350 to 510 nm (representative shown). Steroid was added in 10 μl aliquots (1-2mg/ml in ethanol) to the sample with an equal volume of ethanol added to the reference. Additional aliquots of steroids and ethanol were added until the bacterially expressed P45017α was spectrally saturated (spectra shown).
# [1] = biological target: T2, bovine P450 17A1- rat liver reductase fusion protein; assay: Steroid metabolism by bovine P450 17A1-rat liver reductase fusion protein with NADPH
# Experimental: FIG. 11. […] Analysis was performed with reverse phase HPLC chromatography on a C18 column.
# In the present example, purification of the fusion protein was achieved by chromatography on DE-52 and 2', 5' ADP-sepharose.
# human liver P450 1A2 = biological target: T3, human liver P450 1A2; assay: Ethoxyresorufin and ethoxycoumarin O-deethylase activities of P450 1A2-containing E. coli membranes (fluorometric); type: biochemical; details: O-deethylation; membranes plus purified reductase, 37° C.
# Experimental: (§1) Membranes from P450 1A2-expressing E. coli were incubated with pure NADPH-cytochrome P450 reductase and the activity for the P450 directed oxidation of a number of substrates was determined.
# (§2) Ethoxyresorufin and ethoxycoumarin O-deethylase activities were assayed fluorometrically using an Aminco-Bowman fluorometer as previously described (Burke & Mayer, 1974; Ullrich & Weber, 1972). […] Substrates were added as DMSO solutions in less than 0.1% of the final volume. The reactions were initiated by the addition of 10 μl of 50 mM NADPH.
# [2] = biological target: T4, bovine 17α-hydroxylase (P45017α); details: for conversion by expressed P45017α (17α-hydroxylation / 17,20-lyase): intact E. coli, 2.5 μM steroid, 28° C., up to 8 hours, no added reductase
# Experimental: The initial substrates employed were pregnenolone, 17α-hydroxypregnenolone, and progesterone. For these studies, E. coli were grown and induced as described for the FIG. 2 studies. Cells were pelleted, washed once in MOPS buffer and resuspended in the same buffer at 1/20 volume of the original bacterial culture. A volume of concentrated cells corresponding to 3.7-4.2 nmoles P45017α was diluted to 5ml MOPS buffer containing 10 mM glucose, 2.5 μM steroid and 100,000 cpm/ml of ^3 H-labeled radioactive steroid. Samples were incubated at. 28° C. with gentle shaking. Aliquots (0.5 ml) were removed at 0, 0.5, 1, 2, 4, 6 and 8 hours after steroid addition. Following extraction of cells and culture media steroids were analyzed by HPLC as previously described (Estabrook et al., 1988).
# [3] = substrate: C[C@]12CC[C@@H]3c4ccc(O)cc4CC[C@H]3[C@@H]1CC[C@@H]2O; assay: cells, lysate or membranes named; details: other: estradiol to 2-OH metabolite, membranes plus purified reductase, 37° C., pH 7.5
# [4] = substrate: CCOc1ccc2nc3ccc(=O)cc-3oc2c1; assay: Ethoxyresorufin and ethoxycoumarin O-deethylase activities of P450 1A2-containing E. coli membranes (fluorometric); type: biochemical, human; details: other: O-deethylation, membranes plus purified reductase, 37° C., pH 7.4
# Experimental: as §1, §2
# [5] = membrane-bound fused enzyme (FIG. 10)
# [6] = purified fusion protein incubated with NADPH (FIGS. 11, 12)
molecule,measurement,setting,value
"CC(=O)[C@@]1(O)CC[C@H]2[C@@H]3CC=C4C[C@@H](O)CC[C@]4(C)[C@H]3CC[C@@]21C [17α-hydroxyregnenolone, 17α-hydroxypregnenolone]",binding to expressed P45017α (substrate-induced difference spectrum),bovine P45017α,binding of substrates was also observed
same,metabolism by membrane-bound fusion protein,[1]; [5],lost the ability to catalyze the lyase reaction
same,metabolism by purified fusion protein,[1]; [6],DHEA is formed in a time dependent manner
CCOc1ccc2ccc(=O)oc2c1 [Ethoxycoumarin],Vmax,human liver P450 1A2,0.3644 mol/min/mol P450
C[C@]12CCC(=O)C=C1CC[C@@H]1[C@@H]2CC[C@]2(C)C(=O)CC[C@@H]12 [androstenedione],binding to expressed P45017α (substrate-induced difference spectrum),bovine P45017α,no binding
C[C@]12CC[C@H](O)CC1=CC[C@@H]1[C@@H]2CC[C@]2(C)C(=O)CC[C@@H]12 [dehydroepiandrosterone],binding to expressed P45017α (substrate-induced difference spectrum),bovine P45017α,much less binding
CC(=O)N1CCN(c2ccc(OCC3COC(Cn4ccnc4)(c4ccc(Cl)cc4Cl)O3)cc2)CC1 (stereo not shown) [ketoconazole],inhibition of 17α-hydroxylase activity,[2]; intact E. coli expressing bovine P45017α,inhibit 17α-hydroxylase activity
CC(=O)[C@H]1CC[C@H]2[C@@H]3CC=C4C[C@@H](O)CC[C@]4(C)[C@H]3CC[C@]12C [pregnenolone],binding to expressed P45017α (substrate-induced difference spectrum),bovine P45017α,binding of substrates was also observed
same,"conversion by expressed P45017α (17α-hydroxylation / 17,20-lyase)",[2],readily converted to their 17α-hydroxylated products
same,metabolism by membrane-bound fusion protein,[1],rather slow rate
same,metabolism by purified fusion protein,[1],remarkably high enzymatic activity
CC(=O)[C@H]1CC[C@H]2[C@@H]3CCC4=CC(=O)CC[C@]4(C)[C@H]3CC[C@]12C [progesterone],binding to expressed P45017α (substrate-induced difference spectrum),bovine P45017α,binding of substrates was also observed
same,"conversion by expressed P45017α (17α-hydroxylation / 17,20-lyase)",[2],readily converted to their 17α-hydroxylated products
same,metabolism by membrane-bound fusion protein,[1]; [5],rather slow rate
same,metabolism by purified fusion protein,[1]; [6],remarkably high enzymatic activity
B1,Km,[3],13 µM
same,kcat,[3],1.5 mol/min/mol P450
same,Km,[4],0.01 µM
same,kcat,[4],2.5 mol/min/mol P450
